Here are results for eight compounds from BindingDB's records for doi:10.1016/0922-4106(94)90065-5 (National Children's Medical Research Center, 1994).

A value given as a limit tells only on which side of the number the result lay.

The assay addresses T1, Alpha-1B adrenergic receptor (Mesocricetus auratus, UniProt P18841).
T1 sequence (P18841 whole entry): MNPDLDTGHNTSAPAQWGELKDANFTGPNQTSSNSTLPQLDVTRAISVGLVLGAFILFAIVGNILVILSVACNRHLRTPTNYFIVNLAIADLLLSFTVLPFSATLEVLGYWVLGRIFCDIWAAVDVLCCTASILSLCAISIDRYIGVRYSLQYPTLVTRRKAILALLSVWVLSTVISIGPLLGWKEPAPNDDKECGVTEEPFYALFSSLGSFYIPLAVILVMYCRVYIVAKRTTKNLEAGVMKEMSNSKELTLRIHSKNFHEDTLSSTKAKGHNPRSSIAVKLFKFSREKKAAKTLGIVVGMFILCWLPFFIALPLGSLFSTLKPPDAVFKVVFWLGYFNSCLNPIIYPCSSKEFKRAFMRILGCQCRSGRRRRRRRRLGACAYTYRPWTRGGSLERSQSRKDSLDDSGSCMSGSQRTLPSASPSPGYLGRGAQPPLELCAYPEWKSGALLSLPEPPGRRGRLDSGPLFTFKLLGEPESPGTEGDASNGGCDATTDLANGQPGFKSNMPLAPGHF

The Ki is a measure of affinity in units of concentration, obtained from inhibition or displacement. The compound `COc1ccc(OC)c(C(O)C(C)N)c1` (stereo not drawn) showed a Ki of more than 10000 nM.
To `COc1ccccc1N1CCN(CCCNc2c(C)c(=O)n(C)c(=O)n2C)CC1` [Urapidil-5-methyl] belongs 180 nM; to `CC(C)NCC(O)c1ccc(O)c(O)c1` (stereo not drawn) [Isoproterenol,(+)], more than 10000 nM; to `CNCC(O)c1ccc(O)c(O)c1` (stereo not drawn) [EPINEPHRINE], 9400 nM.
To `NCC(O)c1ccc(O)c(O)c1` (stereo not drawn) [Noradrenaline,(+)] belongs 920 nM; to `COC(=O)[C@@H]1[C@H]2C[C@H]3c4[nH]c5ccccc5c4CCN3C[C@@H]2CC[C@@H]1O` [yohimbic acid methyl ester], 670 nM; to `COc1cccc(OC)c1OCCNCC1Oc2ccccc2OC1c1ccccc1` (stereo not drawn) [NSC_185453], 5.2 nM.
To `Cc1ccc(N(CC2=NCCN2)c2cccc(O)c2)cc1` [SMR000059054] belongs 18 nM.
